Experimental findings from patent US20210259949A1, “USE OF A BIXA ORELLANA EXTRACT” (BASF Beauty Care Solutions France SAS, priority 2018, published 2021) are described below.

The test has as its system IGFBP3 protein. Put plainly: Quantification of IGFBP3 protein by ELISA in supernatant of normal human keratinocytes. The test is classed as cell-based. The settings on record: IGF-1 at 100 ng/ml, 24 h, related to non-treated cells (100), NS. How it is done: Normal human keratinocytes were cultured up to 70% confluence, then treated for 24 h with IGF-1 at 100 ng/ml or the Bixa orellana extract obtained according to Example 1a) before mixing with maltodextrin and spray-drying at 0.1% or 0.05% (w/w in the total medium) for 24 h. The cells are lysed for assaying the DNA, and the supernatant is used for the quantification of the IGFBP3 protein by ELISA according to the protocol of the supplier of the ELISA kit (LSBio Human IGFBP3 ELISA Kit ref LS-F24538 lot 103180).
The results are related to non-treated cells. A statistical t-test test is carried out, and the means are compared.

Consider “IGF-1: growth factor insulin-like growth factor type 1 (IGF1), used at 100 ng/ml”, for which the “IGFBP3 protein, Mean” value is 128.195.
